The NIST ThermoML archive (doi:10.1021/je5007407)
“And” between values parts separate entries of the source, which are not always exact repeats. Equal entries are not always repeated. Numbers after ± are expanded uncertainties.

Test: xn = mol fraction of the nth substance listed
Settings: Gas, Frequency=2 MHz, Pulse-echo method

CCC [propane] + O=C=O
Settings | speed of sound
248.59 K, 8020 kPa, x2 = 0.9981 | 802.3 ± 1.1 m/s
248.59 K, 8030 kPa, x2 = 0.9981 | 802.3 ± 1.1 m/s
248.59 K, 14980 kPa, x2 = 0.9981 | 856.8 ± 1 m/s
248.59 K, 24990 kPa, x2 = 0.9981 | 923 ± 1 m/s
248.59 K, 50040 kPa, x2 = 0.9981 | 1051.1 ± 1 m/s
248.59 K, 74970 kPa, x2 = 0.9981 | 1149.9 ± 1 m/s
248.59 K, 100010 kPa, x2 = 0.9981 | 1233.1 ± 1.1 m/s
248.59 K, 124970 kPa, x2 = 0.9981 | 1303.8 ± 1.1 m/s
248.59 K, 150040 kPa, x2 = 0.9981 | 1367.4 ± 1.2 m/s
248.88 K, 8270 kPa, x2 = 0.9376 | 799.4 ± 1.1 m/s
248.88 K, 15030 kPa, x2 = 0.9376 | 855.4 ± 1.1 m/s
248.88 K, 25030 kPa, x2 = 0.9376 | 924.8 ± 1 m/s
248.88 K, 49910 kPa, x2 = 0.9376 | 1056.8 ± 1 m/s
248.88 K, 75000 kPa, x2 = 0.9376 | 1159.3 ± 1.1 m/s
248.88 K, 100010 kPa, x2 = 0.9376 | 1246.2 ± 1.1 m/s
248.88 K, 125000 kPa, x2 = 0.9376 | 1320.1 ± 1.1 m/s
248.88 K, 149990 kPa, x2 = 0.9376 | 1385.8 ± 1.2 m/s
248.88 K, 174980 kPa, x2 = 0.9376 | 1447.1 ± 1.2 m/s
249.03 K, 7920 kPa, x2 = 0.9683 | 797.2 ± 1.1 m/s and 796.4 ± 1.1 m/s
249.03 K, 14790 kPa, x2 = 0.9683 | 852.8 ± 1.1 m/s
249.03 K, 25010 kPa, x2 = 0.9683 | 922.3 ± 1 m/s
249.03 K, 49980 kPa, x2 = 0.9683 | 1052.6 ± 1 m/s
249.03 K, 75760 kPa, x2 = 0.9683 | 1155.3 ± 1.1 m/s
249.03 K, 100410 kPa, x2 = 0.9683 | 1239.6 ± 1.1 m/s
249.03 K, 125280 kPa, x2 = 0.9683 | 1312.1 ± 1.1 m/s
249.03 K, 150010 kPa, x2 = 0.9683 | 1377.4 ± 1.2 m/s
251.21 K, 8050 kPa, x2 = 0.9907 | 786.8 ± 1.1 m/s
251.21 K, 8120 kPa, x2 = 0.9907 | 787.6 ± 1.1 m/s
251.21 K, 15010 kPa, x2 = 0.9907 | 844.2 ± 1.1 m/s
251.21 K, 25270 kPa, x2 = 0.9907 | 913.8 ± 1 m/s
251.21 K, 50770 kPa, x2 = 0.9907 | 1045.7 ± 1 m/s
251.21 K, 75170 kPa, x2 = 0.9907 | 1143.2 ± 1 m/s
251.21 K, 101430 kPa, x2 = 0.9907 | 1230.8 ± 1.1 m/s
251.21 K, 124940 kPa, x2 = 0.9907 | 1299.1 ± 1.1 m/s
251.21 K, 150910 kPa, x2 = 0.9907 | 1366.3 ± 1.2 m/s
273.25 K, 8170 kPa, x2 = 0.9376 | 614.5 ± 1.5 m/s
273.25 K, 8180 kPa, x2 = 0.9376 | 614.8 ± 1.5 m/s
273.25 K, 15190 kPa, x2 = 0.9376 | 699.7 ± 1.2 m/s
273.25 K, 24920 kPa, x2 = 0.9376 | 787.4 ± 1 m/s
273.25 K, 50000 kPa, x2 = 0.9376 | 946.5 ± 1 m/s
273.25 K, 75020 kPa, x2 = 0.9376 | 1062.2 ± 1 m/s
273.25 K, 100040 kPa, x2 = 0.9376 | 1155.2 ± 1 m/s
273.25 K, 125010 kPa, x2 = 0.9376 | 1236.3 ± 1.1 m/s
273.25 K, 150000 kPa, x2 = 0.9376 | 1305.4 ± 1.1 m/s
273.25 K, 175050 kPa, x2 = 0.9376 | 1369.6 ± 1.2 m/s
273.25 K, 200000 kPa, x2 = 0.9376 | 1428.5 ± 1.2 m/s
273.34 K, 8010 kPa, x2 = 0.9683 | 610.5 ± 1.3 m/s and 610.9 ± 1.3 m/s
273.34 K, 14920 kPa, x2 = 0.9683 | 694.4 ± 1.2 m/s
273.34 K, 25000 kPa, x2 = 0.9683 | 785 ± 1 m/s
273.34 K, 50050 kPa, x2 = 0.9683 | 942.8 ± 1 m/s
273.34 K, 75530 kPa, x2 = 0.9683 | 1058.9 ± 1 m/s
273.34 K, 100060 kPa, x2 = 0.9683 | 1149.4 ± 1 m/s
273.34 K, 125060 kPa, x2 = 0.9683 | 1229.3 ± 1.1 m/s
273.34 K, 148510 kPa, x2 = 0.9683 | 1293.7 ± 1.1 m/s
273.34 K, 175030 kPa, x2 = 0.9683 | 1360.3 ± 1.2 m/s
273.34 K, 200040 kPa, x2 = 0.9683 | 1417.3 ± 1.2 m/s
273.39 K, 8050 kPa, x2 = 0.9907 | 613.9 ± 1.3 m/s
273.39 K, 8070 kPa, x2 = 0.9907 | 614 ± 1.3 m/s
273.39 K, 15140 kPa, x2 = 0.9907 | 698.1 ± 1.2 m/s
273.39 K, 25280 kPa, x2 = 0.9907 | 787.2 ± 1 m/s
273.39 K, 50080 kPa, x2 = 0.9907 | 941.2 ± 1 m/s
273.39 K, 75540 kPa, x2 = 0.9907 | 1055.9 ± 1 m/s
273.39 K, 100080 kPa, x2 = 0.9907 | 1145.5 ± 1 m/s
273.39 K, 125360 kPa, x2 = 0.9907 | 1225.5 ± 1.1 m/s
273.39 K, 150170 kPa, x2 = 0.9907 | 1292.3 ± 1.1 m/s
273.39 K, 174970 kPa, x2 = 0.9907 | 1354.8 ± 1.2 m/s
273.39 K, 199910 kPa, x2 = 0.9907 | 1410.8 ± 1.2 m/s
273.41 K, 15200 kPa, x2 = 0.9981 | 699 ± 1.1 m/s
273.41 K, 15230 kPa, x2 = 0.9981 | 699 ± 1.1 m/s
273.41 K, 25030 kPa, x2 = 0.9981 | 785.6 ± 1 m/s
273.41 K, 50020 kPa, x2 = 0.9981 | 939.4 ± 1 m/s
273.41 K, 75010 kPa, x2 = 0.9981 | 1052.3 ± 1 m/s
273.41 K, 100020 kPa, x2 = 0.9981 | 1143.6 ± 1 m/s
273.41 K, 124950 kPa, x2 = 0.9981 | 1220.2 ± 1.1 m/s
273.41 K, 150010 kPa, x2 = 0.9981 | 1288.3 ± 1.1 m/s
273.41 K, 174990 kPa, x2 = 0.9981 | 1349.1 ± 1.2 m/s
273.41 K, 200000 kPa, x2 = 0.9981 | 1404.5 ± 1.2 m/s
298.13 K, 25110 kPa, x2 = 0.9907 | 654.1 ± 0.9 m/s
298.13 K, 25180 kPa, x2 = 0.9907 | 653.9 ± 0.9 m/s
298.13 K, 50020 kPa, x2 = 0.9907 | 837.8 ± 1 m/s
298.13 K, 50040 kPa, x2 = 0.9981 | 837.4 ± 0.9 m/s and 837.3 ± 0.9 m/s
298.13 K, 74940 kPa, x2 = 0.9981 | 962.5 ± 0.9 m/s
298.13 K, 75230 kPa, x2 = 0.9907 | 965 ± 1 m/s
298.13 K, 100020 kPa, x2 = 0.9981 | 1061.9 ± 1 m/s
298.13 K, 100100 kPa, x2 = 0.9907 | 1064 ± 1 m/s
298.13 K, 124970 kPa, x2 = 0.9907 | 1147.9 ± 1 m/s
298.13 K, 125020 kPa, x2 = 0.9981 | 1145.5 ± 1 m/s
298.13 K, 149790 kPa, x2 = 0.9907 | 1220.2 ± 1.1 m/s
298.13 K, 150010 kPa, x2 = 0.9981 | 1219.2 ± 1.1 m/s
298.13 K, 174530 kPa, x2 = 0.9907 | 1285.6 ± 1.1 m/s
298.13 K, 174980 kPa, x2 = 0.9981 | 1285.5 ± 1.1 m/s
298.13 K, 200010 kPa, x2 = 0.9981 | 1346.1 ± 1.2 m/s
298.13 K, 200530 kPa, x2 = 0.9907 | 1346.2 ± 1.2 m/s
298.14 K, 14950 kPa, x2 = 0.9683 | 531.8 ± 1.3 m/s
298.14 K, 14960 kPa, x2 = 0.9683 | 532.2 ± 1.3 m/s
298.14 K, 24980 kPa, x2 = 0.9683 | 654.5 ± 1 m/s
298.14 K, 50050 kPa, x2 = 0.9683 | 841.6 ± 1 m/s
298.14 K, 74950 kPa, x2 = 0.9683 | 969 ± 1 m/s
298.14 K, 100060 kPa, x2 = 0.9683 | 1070 ± 1 m/s
298.14 K, 125000 kPa, x2 = 0.9683 | 1154.1 ± 1 m/s
298.14 K, 150290 kPa, x2 = 0.9683 | 1228.9 ± 1.1 m/s
298.14 K, 175030 kPa, x2 = 0.9683 | 1294.1 ± 1.1 m/s
298.14 K, 200020 kPa, x2 = 0.9683 | 1354.1 ± 1.2 m/s
298.18 K, 8210 kPa, x2 = 0.9376 | 388.5 ± 2.4 m/s
298.18 K, 15120 kPa, x2 = 0.9376 | 538.7 ± 1.7 m/s and 538.6 ± 1.7 m/s
298.18 K, 24990 kPa, x2 = 0.9376 | 659 ± 1 m/s
298.18 K, 49980 kPa, x2 = 0.9376 | 846.6 ± 1 m/s
298.18 K, 75090 kPa, x2 = 0.9376 | 975.1 ± 1 m/s
